The text below walks through data of US20240409585A1, “MACROCYCLIC IMMUNOMODULATORS” (priority 2021, published 2024).

Bridge positions count the residues as written; N and C are the ends. Square brackets hold non-standard residues; d marks the D form. Peptide text beside a SMILES is read from it. * marks the point of attachment. ξ: configuration not given here. Phe(4-COOH) = N[C@@H](Cc1ccc(C(=O)O)cc1)C(=O)O; Bip = N[C@@H](Cc1ccc(-c2ccccc2)cc1)C(=O)O; Phe(3-Me) = Cc1cccc(C[C@H](N)C(=O)O)c1; Phe(2-F) = N[C@@H](Cc1ccccc1F)C(=O)O; Val(3-OH) = CC(C)(O)[C@H](N)C(=O)O; NMePhg = CN[C@H](C(=O)O)c1ccccc1; 3Pal = N[C@@H](Cc1cccnc1)C(=O)O; 4Pal = N[C@@H](Cc1ccncc1)C(=O)O; Cha = N[C@@H](CC1CCCCC1)C(=O)O; Cit = NC(=O)NCCC[C@H](N)C(=O)O; Ile(3ξ) = CCC(C)[C@H](N)C(=O)O; dChg = N[C@@H](C(=O)O)C1CCCCC1; Thr(3ξ) = CC(O)[C@H](N)C(=O)O; ξ4Pal = NC(Cc1ccncc1)C(=O)O; Pip = O=C(O)[C@@H]1CCCCN1; Carboxymethyl = O=C(O)C*; NMeA = CN[C@@H](C)C(=O)O; Nle = CCCC[C@H](N)C(=O)O; Dab = NCC[C@H](N)C(=O)O; Dap = NC[C@H](N)C(=O)O; Ac3c = NC1(C(=O)O)CC1

T1 sequence (Q15116 25-288): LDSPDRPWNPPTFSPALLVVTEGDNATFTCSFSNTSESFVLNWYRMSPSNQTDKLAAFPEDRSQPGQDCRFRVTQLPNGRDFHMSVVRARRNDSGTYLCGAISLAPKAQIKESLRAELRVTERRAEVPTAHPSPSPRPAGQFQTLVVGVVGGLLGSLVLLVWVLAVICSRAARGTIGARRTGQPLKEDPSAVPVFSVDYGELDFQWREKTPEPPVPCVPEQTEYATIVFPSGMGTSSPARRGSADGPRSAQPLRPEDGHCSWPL

This test addresses T1, PE-labeled human PD-L1-Ig binding to Jurkat cell line over-expressing human PD-1 (Jurkat-PD-1) (Homo sapiens, UniProt Q15116).
T1 construct: expressed in transfected cells; host or cells: Jurkat
Nature of the test: Jurkat-PD-1 Cell Binding High-Content Screening Assay (CBA): Method 1. The conditions noted are these: Jurkat-hPD-1 cells, PE-labeled PD-L1-Ig 20 nM final; read-out: Jurkat HPDL1 PD1 IC50 (uM) (Method 1).
For `CC[C@H](C)[C@@H]1NC(=O)[C@H](Cc2ccc(-c3ccccc3)cc2)NC(=O)[C@H](C(C)C)NC(=O)[C@H](Cc2c[nH]c3ccccc23)NC(=O)[C@H](CC(=O)O)NC(=O)[C@H](Cc2ccc(O)cc2)NC(=O)[C@H](CC(N)=O)NC(=O)CSC[C@@H](C(=O)N[C@@H](C)C(N)=O)NC(=O)[C@H]([C@@H](C)O)NC(=O)[C@H](C(C)C)NC(=O)[C@H](CC(C)C)NC(=O)[C@H](CCN)NC(=O)[C@@H](CC(C)C)NC(=O)[C@@H]2CCCCN2C1=O` [Compound 1399] ({CH2CO}-NYDWV[Bip]I[Pip][dL][Dab]LVTCA-NH2; thioether N-14), the IC50 was determined as 0.14 µM.

On to `CC(C)C[C@@H]1NC(=O)[C@H](Cc2c[nH]c3ccccc23)NC(=O)[C@H](CC(=O)O)NC(=O)[C@H](Cc2ccccc2F)NC(=O)[C@H](Cc2ccccc2)NC(=O)CSC[C@@H](C(=O)N[C@@H](C)C(N)=O)NC(=O)[C@H](CO)NC(=O)[C@H](C(C)C)NC(=O)[C@H](CC(C)C)NC(=O)[C@H](CC(N)=O)NC(=O)[C@@H](C)NC(=O)[C@H](C)N(C)C(=O)[C@H](C(C)C)NC(=O)[C@H](Cc2ccc(-c3ccccc3)cc2)NC1=O` [Compound 1735] ({CH2CO}-F[Phe(2-F)]DWL[Bip]V[NMeA][dA]NLVSCA-NH2; thioether N-14), for which the IC50 was 0.02 µM.

With `CCCC[C@@H]1NC(=O)[C@H](CCN)NC(=O)[C@@H](CC(C)C)NC(=O)[C@H](C)N(C)C(=O)[C@H](CCCNC(=N)N)NC(=O)[C@H](Cc2ccc(-c3ccccc3)cc2)NC(=O)[C@H](C(C)C)NC(=O)[C@H](Cc2c[nH]c3ccccc23)NC(=O)[C@H](CC(=O)O)NC(=O)[C@H](Cc2ccc(O)cc2)NC(=O)[C@H](CC(N)=O)NC(=O)CSC[C@@H](C(=O)N[C@@H](C)C(N)=O)NC(=O)[C@H]([C@@H](C)O)NC(=O)[C@H](C(C)C)NC1=O` [Compound 1283] ({CH2CO}-NYDWV[Bip]R[NMeA][dL][Dab][Nle]VTCA-NH2; thioether N-14), the IC50 is 0.04 µM.

For `CC(C)C[C@H]1NC(=O)[C@H](C)N(C)C(=O)[C@H](CCCNC(N)=O)NC(=O)[C@H](Cc2ccc(-c3ccccc3)cc2)NC(=O)[C@H](C(C)C)NC(=O)[C@H](Cc2c[nH]c3ccccc23)NC(=O)[C@H](CC(=O)O)NC(=O)[C@H](Cc2ccc(OCC(=O)O)cc2)NC(=O)[C@H](Cc2ccccc2)NC(=O)CSC[C@@H](C(=O)N[C@@H](C)C(N)=O)NC(=O)[C@H](CO)NC(=O)[C@H](C(C)C)NC(=O)[C@H](CC2CCCCC2)NC(=O)[C@H](CC(N)=O)NC1=O` [Compound 2022] ({CH2CO}-FY(Carboxymethyl)DWV[Bip][Cit][NMeA][dL]N[Cha]VSCA-NH2; thioether N-14), the IC50 stood at 0.01 µM.

On to `CC(C)C[C@@H]1NC(=O)[C@H](CCCNC(=N)N)NC(=O)[C@@H](C2CCCCC2)NC(=O)[C@H](C)N(C)C(=O)[C@H](CCCNC(=N)N)NC(=O)[C@H](Cc2ccc(-c3ccccc3)cc2)NC(=O)[C@H](C(C)C)NC(=O)[C@H](Cc2c[nH]c3ccccc23)NC(=O)[C@H](CC(=O)O)NC(=O)[C@H](Cc2ccc(O)cc2)NC(=O)[C@H](Cc2ccccc2)NC(=O)CSC[C@@H](C(=O)N[C@@H](C)C(N)=O)NC(=O)[C@H]([C@@H](C)O)NC(=O)[C@H](C(C)C)NC1=O` [Compound 1061] ({CH2CO}-FYDWV[Bip]R[NMeA][dChg]RLVTCA-NH2; thioether N-14), for which the IC50 was found to be 0.1 µM.

`CC(C)C[C@@H]1NC(=O)[C@H](Cc2c[nH]c3ccccc23)NC(=O)[C@H](CC(=O)O)NC(=O)[C@H](Cc2ccc(C(=O)O)cc2)NC(=O)[C@H](Cc2ccc(OCC(=O)O)cc2)NC(=O)CSC[C@@H](C(=O)N[C@H](C)C(N)=O)NC(=O)[C@H](CO)NC(=O)[C@H](C(C)(C)O)NC(=O)[C@H](CC2CCCCC2)NC(=O)[C@H](CCN)NC(=O)[C@@H](CC(C)C)NC(=O)[C@H](C)N(C)C(=O)[C@H](C(C)(C)O)NC(=O)[C@H](Cc2ccc(-c3ccccc3)cc2)NC1=O` [Compound 1714] ({CH2CO}-Y(Carboxymethyl)[Phe(4-COOH)]DWL[Bip][Val(3-OH)][NMeA][dL][Dab][Cha][Val(3-OH)]SC[dA]-NH2; thioether N-14): the IC50 was determined as 0.02 µM.

Consider `Cc1cccc2c(CC3NC(=O)[C@H](CC(=O)O)NC(=O)[C@H](Cc4ccc(O)cc4)NC(=O)[C@H](Cc4ccccc4)NC(=O)CSC[C@@H](C(=O)N[C@@H](C)C(N)=O)NC(=O)[C@H]([C@@H](C)O)NC(=O)[C@H](C(C)C)NC(=O)[C@H](CC(C)C)NC(=O)[C@H](CCCNC(=N)N)NC(=O)[C@@H](CC(C)C)NC(=O)[C@H](C)N(C)C(=O)[C@H](CCCNC(=N)N)NC(=O)[C@H](Cc4ccc(-c5ccccc5)cc4)NC(=O)[C@H](C(C)C)NC3=O)n[nH]c12` (mixture of isomers) [Compound 1105], for which the IC50 stood at 0.87 µM.

Consider `CC(C)C[C@@H]1NC(=O)[C@H](Cc2c[nH]c3ccccc23)NC(=O)[C@H](CC(=O)O)NC(=O)[C@H](Cc2ccc(O)cc2)NC(=O)[C@H](Cc2ccccc2)NC(=O)CSC[C@@H](C(=O)N[C@@H](C)C(N)=O)NC(=O)[C@H](CO)NC(=O)[C@H](C(C)C)NC(=O)[C@H](CC(C)C)NC(=O)[C@H](CC(N)=O)NC(=O)[C@@H](CCC(=O)O)NC(=O)[C@H](C)N(C)C(=O)[C@H](C(C)C)NC(=O)[C@H](Cc2ccc(-c3ccccc3)cc2)NC1=O` [Compound 1820] ({CH2CO}-FYDWL[Bip]V[NMeA][dE]NLVSCA-NH2; thioether N-14), for which the IC50 came out at 0.48 µM.

Regarding `CCC(C)[C@@H]1NC(=O)[C@H](Cc2ccc(-c3ccccc3)cc2)NC(=O)[C@H](C(C)C)NC(=O)[C@H](Cc2c[nH]c3ccccc23)NC(=O)[C@H](CC(N)=O)NC(=O)[C@H](Cc2ccc(OCC(=O)O)cc2)NC(=O)[C@H](Cc2ccncc2)NC(=O)CSC[C@@H](C(=O)N[C@@H](CCCCN)C(N)=O)NC(=O)[C@H](C(C)O)NC(=O)[C@H](C(C)C)NC(=O)[C@H](CC(C)C)NC(=O)[C@H](CC(N)=O)NC(=O)[C@@H](CC(C)C)NC(=O)[C@H](C)N(C)C1=O` (stereo partly drawn) [Compound 2055] ({CH2CO}-[4Pal]Y(Carboxymethyl)NWV[Bip][Ile(3ξ)][NMeA][dL]NLV[Thr(3ξ)]CK-NH2; thioether N-14), the IC50 was 0.95 µM.

As to `CC(C)C[C@@H]1NC(=O)[C@H](CCCCN)NC(=O)[C@@H](CC(C)C)NC(=O)[C@H](C)N(C)C(=O)[C@H](CCCNC(=N)N)NC(=O)[C@H](Cc2ccc(-c3ccccc3)cc2)NC(=O)[C@H](C(C)C)NC(=O)[C@H](Cc2c[nH]c3ccccc23)NC(=O)[C@H](CC(=O)O)NC(=O)[C@H](Cc2ccc(O)cc2)NC(=O)[C@H](Cc2ccccc2)NC(=O)CSC[C@@H](C(=O)N[C@@H](CCC(=O)O)C(N)=O)NC(=O)[C@H]([C@@H](C)O)NC(=O)[C@H](C(C)C)NC1=O` [Compound 1168] ({CH2CO}-FYDWV[Bip]R[NMeA][dL]KLVTCE-NH2; thioether N-14), the IC50 was found to be 0.12 µM.

Regarding `CC(C)C[C@@H]1NC(=O)[C@H](CC(N)=O)NC(=O)[C@@H](CC(C)C)NC(=O)[C@H](C)N(C)C(=O)[C@H](CCCNC(=N)N)NC(=O)[C@H](Cc2ccc(-c3ccccc3)cc2)NC(=O)[C@H](C(C)C)NC(=O)[C@H](Cc2c[nH]c3ccccc23)NC(=O)[C@H](CC(=O)O)NC(=O)[C@H](Cc2ccc(O)cc2)NC(=O)[C@H](Cc2ccccc2)NC(=O)CSC[C@@H](C(=O)N[C@@H](C)C(N)=O)NC(=O)[C@H](CO)NC(=O)[C@H](C(C)C)NC1=O` [Compound 1742] ({CH2CO}-FYDWV[Bip]R[NMeA][dL]NLVSCA-NH2; thioether N-14), the IC50 stood at 0.02 µM.

Turning to `CC(C)C[C@@H]1NC(=O)[C@H](CCN)NC(=O)[C@@H](CC(C)C)NC(=O)[C@H](c2ccccc2)N(C)C(=O)[C@H](C(C)C)NC(=O)[C@H](Cc2ccc(-c3ccccc3)cc2)NC(=O)[C@H](C(C)C)NC(=O)[C@H](Cc2c[nH]c3ccccc23)NC(=O)[C@H](CC(=O)O)NC(=O)[C@H](Cc2ccc(O)cc2)NC(=O)[C@H](CC(N)=O)NC(=O)CSC[C@@H](C(=O)N[C@@H](C)C(N)=O)NC(=O)[C@H]([C@@H](C)O)NC(=O)[C@H](C(C)C)NC1=O` [Compound 1366] ({CH2CO}-NYDWV[Bip]V[NMePhg][dL][Dab]LVTCA-NH2; thioether N-14), the IC50 is 0.03 µM.

In the case of `Cc1cccc(C[C@@H]2NC(=O)[C@H](CC(=O)O)NC(=O)[C@H](Cc3ccc(OCC(=O)O)cc3)NC(=O)C(Cc3ccncc3)NC(=O)CSC[C@@H](C(=O)NC3(C(N)=O)CC3)NC(=O)[C@H](CO)NC(=O)[C@H](C(C)C)NC(=O)[C@H](CC3CCCCC3)NC(=O)[C@H](CCN)NC(=O)[C@@H](CC(C)C)NC(=O)[C@H](C)N(C)C(=O)[C@H](Cc3ccc(OCC(=O)O)cc3)NC(=O)[C@H](Cc3ccc(-c4ccccc4)cc3)NC(=O)[C@H](Cc3ccc(OCC(=O)O)cc3)NC2=O)c1` (stereo partly drawn) [Compound 1863] ({CH2CO}-[ξ4Pal]Y(Carboxymethyl)D[Phe(3-Me)]Y(Carboxymethyl)[Bip]Y(Carboxymethyl)[NMeA][dL][Dab][Cha]VSC[Ac3c]-NH2; thioether N-14), the IC50 is 0.01 µM.

Turning to `CC[C@H](C)[C@@H]1NC(=O)[C@H](Cc2ccc(-c3ccccc3)cc2)NC(=O)[C@H](C(C)C)NC(=O)[C@H](Cc2c[nH]c3ccccc23)NC(=O)[C@H](CC(=O)O)NC(=O)[C@H](Cc2ccncc2)NC(=O)[C@H](CN)NC(=O)CSC[C@@H](C(=O)N[C@@H](C)C(N)=O)NC(=O)[C@H]([C@@H](C)O)NC(=O)[C@H](C(C)C)NC(=O)[C@H](CC(C)C)NC(=O)[C@H](CCN)NC(=O)[C@@H](CC(C)C)NC(=O)[C@H](C)N(C)C1=O` [Compound 1405] ({CH2CO}-[Dap][4Pal]DWV[Bip]I[NMeA][dL][Dab]LVTCA-NH2; thioether N-14), the IC50 was found to be 0.03 µM.

With `CC(C)C[C@@H]1NC(=O)[C@H](CCN)NC(=O)[C@@H](CC(C)C)NC(=O)[C@H](C)N(C)C(=O)[C@H](CCCNC(=N)N)NC(=O)[C@H](Cc2ccc(-c3ccccc3)cc2)NC(=O)[C@H](C(C)C)NC(=O)[C@H](Cc2c[nH]c3ccccc23)NC(=O)[C@H](CC(=O)O)NC(=O)[C@H](Cc2cnc[nH]2)NC(=O)[C@H](Cc2cccnc2)NC(=O)CSC[C@@H](C(=O)N[C@@H](C)C(N)=O)NC(=O)[C@H]([C@@H](C)O)NC(=O)[C@H](C(C)C)NC1=O` [Compound 1157] ({CH2CO}-[3Pal]HDWV[Bip]R[NMeA][dL][Dab]LVTCA-NH2; thioether N-14), the IC50 came out at 0.11 µM.

One may read the IC50 as the concentration that inhibits the measured activity by half.
